# Laboratory results from article PMC3367954, “The Influence of pH on the Specific Adhesion of P Piliated Escherichia coli” (PLoS ONE, 2012).
# Target: T1, PapG adhesin (isolated P pili) (Escherichia coli, UniProt P13720)
# T1 construct: gene papGI; native PapG at the tip of isolated P pili (rod of PapA), sheared from E. coli HB101/pPAP5, ammonium sulfate precipitated; PapG not purified separately
# Test: surface plasmon resonance (Biacore X100), isolated P pili over immobilised galabiose-BSA
# Assay type: binding
# Conditions: galabiose as BSA conjugate (about 30 per BSA) on CM3 chip, BSA reference subtracted; citrate-phosphate buffer pH 3.5-8.0, 25 °C; multivalent
# T1 sequence (P13720 22-335): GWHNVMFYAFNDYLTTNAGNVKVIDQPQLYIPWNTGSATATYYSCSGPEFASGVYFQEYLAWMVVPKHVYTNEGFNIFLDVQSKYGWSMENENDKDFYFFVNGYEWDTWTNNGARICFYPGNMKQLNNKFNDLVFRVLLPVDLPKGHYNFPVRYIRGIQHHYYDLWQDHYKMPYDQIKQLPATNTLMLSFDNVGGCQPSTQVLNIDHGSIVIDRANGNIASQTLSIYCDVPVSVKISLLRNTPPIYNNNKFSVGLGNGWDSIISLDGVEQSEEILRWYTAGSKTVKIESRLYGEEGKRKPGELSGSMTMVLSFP
smiles,measurement,value
"OC[C@H]1O[C@H](O[C@@H]2[C@H](O)[C@@H](O)C(O)O[C@@H]2CO)[C@H](O)[C@@H](O)[C@H]1O (stereo partly drawn) [galabiose, α-D-Gal-(1–4)-β-D-Gal]","surface plasmon resonance (Biacore X100), isolated P pili over immobilised galab",the binding stability of both isolated pili and bacteria to galabiose-coated surfaces was high
